# From paper PMC8617031, “Development of a BCL-xL and BCL-2 dual degrader with improved anti-leukemic activity,” (Nature Communications, 2021)
# Where “and” joins values, the source holds several entries; their conditions need not be identical. Identical values can stand only once.
# Columns and labels:
# BCL-xL = molecular target: T1, BCL-xL (Homo sapiens, UniProt Q07817); assay: BCL-xL degradation by immunoblot in 293T cells; assay type: cell-based; conditions: for DC50: four concentrations, Fig. 2b, read-out: BCL-xL DC50; for Dmax: HEK-293T
# T1 construct: endogenous in cells
# Protocol: (§1) The DC50 and Dmax were calculated using Prism based on the ImageJ-quantified western blots in Supplementary Fig. 4. c, d AlphaLISA assay to determine the formation of BCL-xL/PROTAC/VHL-ELOC-ELOB (VCB) (c) or BCL-2/PROTAC/VCB (d) ternary complex in a cell-free condition. Data represent the mean of a single experiment with 2 technical replicates. Similar results were obtained in one more independent experiment. e, f NanoBRET assays evaluating intracellular BCL-xL/PROTAC/VCB (e) or BCL-2/PROTAC/VCB (f) ternary complex formation. […] Data are expressed as mean ± s.e.m. of three biological replicates. Source data are provided as a Source data file.
# (§2) Representative immunoblots are shown in (a–d) and β-actin was used as a loading control in all immunoblot analyses. The normalized protein content in the immunoblots is presented as mean values ± s.e.m. (n = 3 biologically independent experiments) in the bar graph (bottom panel). e, f The formation of BCL-xL/PROTAC/VCB (e) and BCL-2/PROTAC/VCB (f) ternary complexes in a cell-free condition was determined by AlphaLISA assay. Data represent the mean of a single experiment with 2 technical replicates. […] Source data are provided as a Source data file.
# (§3) Cells were collected, washed once with ice-cold phosphate-buffered saline, pH 7.2 (PBS, cat. no. 20012027; Thermo Fisher Scientific) and lysed in RIPA lysis buffer (Cat. No. BP-115DG, Boston Bio Products, Ashland, MA, USA) supplemented with protease and phosphatase inhibitor cocktails (Cat. No. PPC1010, Sigma-Aldrich, St. Louis, MO, USA) through sonication. The samples were centrifuged at 14,000 r.p.m. for 5 min and the supernatants were transferred into a new tube. The protein concentration in the supernatants was determined using the Pierce BCA protein Assay kit (cat. no. 23225, Thermo Fisher Scientific). The protein concentration was normalized, and the samples were reduced in 4× Laemmli’s SDS-sample buffer (cat. no. BP-110R, Boston Bio Products) and denatured at 95 °C for 5 min. An equal amount of protein samples (20–40 μg per lane) were resolved using precast 4–20% Tris-glycine gels (Mini-PROTEAN TGX, cat. no. 456–1094, Bio-Rad), and resolved proteins were transferred onto 0.2-µm pore size polyvinylidene difluoride (PVDF) blotting membranes (cat. no. LC2002, Thermo Fisher Scientific) using mini trans-blot electrophoretic transfer cell (Bio-Rad). The membranes were blocked with non-fat dry milk (5% wt/vol) in 1× Tris-buffered saline-Tween-20 (TBST, cat. no. J77500, Affymetrix) for 1 h at room temperature, and were subsequently probed with primary antibodies at a predetermined optimal concentration in non-fat dry milk (5% wt/vol in TBST) overnight at 4 °C. The membranes were washed three times (5 min each) in TBST and then incubated with horse radish peroxidase (HRP)-conjugated secondary antibodies for 1 h at room temperature. Following sufficient washing with TBST, the membranes were exposed with chemiluminescent HRP substrate (cat. no. WBKLS0500, MilliporeSigma), and the signal was detected using the ChemiDoc MP Imaging System (Bio-Rad) and quantified using the ImageJ (v1.53a) software from NIH.
# BCL-2 = molecular target: T2, BCL-2 (Homo sapiens, UniProt P10415); assay: BCL-2 degradation by immunoblot in 293T cells; assay type: cell-based; conditions: for Dmax: HEK-293T
# T2 construct: endogenous in cells
# Protocol: as §1, §2, §3
# [1] = molecular target: T3, BCL-xL/PROTAC/VHL-ELOC-ELOB (VCB) ternary complex (Homo sapiens, UniProt P40337+Q07817); assay: AlphaLISA ternary complex formation, cell-free, BCL-xL; assay type: binding; conditions: for in vitro ternary complex formation with BCL-xL (in words): AlphaLISA, cell-free, Fig. 2c, 3e; for AlphaLISA signal, BCL-xL/PROTAC/VCB: Fig. 2c raw Alpha reads
# T3 construct: pGEX-6P-1-VHL(54-213) (pDL2200) was constructed through Gibson assembly method; made in house; host or cells: bacterial culture (LB broth, IPTG induction)
# Protocol: (§4) AlphaLISA assay was used to evaluate the in vitro ternary complex formation between target proteins (BCL-xL or BCL-2), PROTAC and E3 ligase (VCB complex). In each well, 5 nM His-tagged BCL-xL or BCL-2 proteins and 5 nM GST-VCB complex was incubated with varying concentrations of compounds in fourfold serial dilutions, to a final volume of 40 µl in a 96-well PCR plate. After incubation at room temperature for 30 min, 5 µl alpha glutathione-donor beads (Cat. No. 6765300, PerkinElmer) were added to each well (20 µg/ml final concentration) and incubated for another 15 min. Thereafter, 5 µL 6× His-acceptor beads were added to each well (20 µg/ml final concentration) and incubated for an additional 45 min at room temperature. Thereafter, 17 µl of each sample was transferred in adjacent wells of a 384-well proxy plate, and the plate was scanned using the Alpha program on Biotek’s Synergy Neo2 multimode plate reader. The data were expressed as average AlphaLISA signal and plotted against different concentrations of compounds using GraphPad Prism 9 software.
# [2] = molecular target: T4, BCL-2/PROTAC/VCB ternary complex (Homo sapiens, UniProt P10415+P40337); assay: AlphaLISA ternary complex formation, cell-free, BCL-2; assay type: binding; conditions: for in vitro ternary complex formation with BCL-2 (in words): AlphaLISA, cell-free, Fig. 2d, 3f; for AlphaLISA signal, BCL-2/PROTAC/VCB: Fig. 2d raw Alpha reads
# T4 construct: pGEX-6P-1-VHL(54-213) (pDL2200) was constructed through Gibson assembly method; made in house; host or cells: bacterial culture (LB broth, IPTG induction)
# Protocol: as §4
# [3] = compound 200000 nM, 2 technical replicates
# T2 sequence (P10415 whole entry): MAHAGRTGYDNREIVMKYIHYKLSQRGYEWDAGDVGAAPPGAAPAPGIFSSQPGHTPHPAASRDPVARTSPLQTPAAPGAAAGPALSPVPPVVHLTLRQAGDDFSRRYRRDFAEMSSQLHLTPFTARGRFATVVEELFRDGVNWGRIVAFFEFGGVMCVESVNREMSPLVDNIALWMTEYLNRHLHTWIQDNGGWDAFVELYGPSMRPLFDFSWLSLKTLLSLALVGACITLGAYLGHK
# T3 sequence (Q07817 1-212 limits assumed): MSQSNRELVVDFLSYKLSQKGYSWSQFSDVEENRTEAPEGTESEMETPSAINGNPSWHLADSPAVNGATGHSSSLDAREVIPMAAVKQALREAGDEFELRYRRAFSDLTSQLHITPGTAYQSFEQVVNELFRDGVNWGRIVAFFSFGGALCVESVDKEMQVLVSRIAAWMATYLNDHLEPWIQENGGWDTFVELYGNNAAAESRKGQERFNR
# T3 sequence (P40337 54-213 limits assumed): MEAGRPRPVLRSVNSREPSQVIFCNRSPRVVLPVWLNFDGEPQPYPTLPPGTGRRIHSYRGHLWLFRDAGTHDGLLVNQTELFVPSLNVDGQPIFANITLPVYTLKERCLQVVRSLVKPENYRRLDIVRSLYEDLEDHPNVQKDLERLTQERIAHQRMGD
# T3 sequence (Q15369 17-112 partner limits assumed): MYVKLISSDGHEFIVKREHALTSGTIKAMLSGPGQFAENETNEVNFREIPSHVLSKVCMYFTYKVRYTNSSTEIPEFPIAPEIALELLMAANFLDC
# T3 sequence (Q15370 whole entry partner): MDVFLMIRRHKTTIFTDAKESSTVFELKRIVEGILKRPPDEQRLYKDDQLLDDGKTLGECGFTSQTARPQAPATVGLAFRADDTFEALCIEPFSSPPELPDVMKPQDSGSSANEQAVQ
# T4 sequence (P10415 1-211 limits assumed): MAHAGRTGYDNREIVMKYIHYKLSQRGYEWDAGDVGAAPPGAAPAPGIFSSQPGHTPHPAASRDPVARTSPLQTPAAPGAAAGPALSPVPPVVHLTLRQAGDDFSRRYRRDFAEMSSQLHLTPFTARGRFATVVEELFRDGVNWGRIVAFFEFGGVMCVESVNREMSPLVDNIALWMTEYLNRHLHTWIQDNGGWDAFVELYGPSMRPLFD
# T4 sequence (P40337 54-213 limits assumed): as the sequence (P40337 54-213 limits assumed) above
# T4 sequence (Q15369 17-112 partner limits assumed): as the sequence (Q15369 17-112 partner limits assumed) above
# T4 sequence (Q15370 whole entry partner): as the sequence (Q15370 whole entry partner) above
# T1 sequence (Q07817 whole entry): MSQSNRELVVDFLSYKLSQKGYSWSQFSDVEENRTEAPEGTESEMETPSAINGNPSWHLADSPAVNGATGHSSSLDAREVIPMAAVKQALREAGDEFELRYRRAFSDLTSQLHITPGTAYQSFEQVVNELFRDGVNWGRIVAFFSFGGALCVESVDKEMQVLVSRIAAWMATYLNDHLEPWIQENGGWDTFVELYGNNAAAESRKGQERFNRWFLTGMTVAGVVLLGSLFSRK
Dmax (BCL-xL) [%],Dmax (BCL-2) [%],in vitro ternary complex formation with BCL-xL (in words) [1],"AlphaLISA signal, BCL-xL/PROTAC/VCB ([1]; compound 0.191 nM)","AlphaLISA signal, BCL-xL/PROTAC/VCB ([1]; compound 0.763 nM)","AlphaLISA signal, BCL-xL/PROTAC/VCB ([1]; compound 3.052 nM)","AlphaLISA signal, BCL-xL/PROTAC/VCB ([1]; compound 12.207 nM)","AlphaLISA signal, BCL-xL/PROTAC/VCB ([1]; compound 48.828 nM)","AlphaLISA signal, BCL-xL/PROTAC/VCB ([1]; compound 195.31 nM)","AlphaLISA signal, BCL-xL/PROTAC/VCB ([1]; compound 781.25 nM)","AlphaLISA signal, BCL-xL/PROTAC/VCB ([1]; compound 12500 nM)","AlphaLISA signal, BCL-xL/PROTAC/VCB ([1]; compound 50000 nM)",in vitro ternary complex formation with BCL-2 (in words) [2],"AlphaLISA signal, BCL-2/PROTAC/VCB ([2]; compound 0.191 nM)","AlphaLISA signal, BCL-2/PROTAC/VCB ([2]; compound 0.763 nM)","AlphaLISA signal, BCL-2/PROTAC/VCB ([2]; compound 3.052 nM)","AlphaLISA signal, BCL-2/PROTAC/VCB ([2]; compound 12.207 nM)","AlphaLISA signal, BCL-2/PROTAC/VCB ([2]; compound 48.828 nM)","AlphaLISA signal, BCL-2/PROTAC/VCB ([2]; compound 195.31 nM)","AlphaLISA signal, BCL-2/PROTAC/VCB ([2]; compound 781.25 nM)",SMILES,further results
56,47,stronger ternary complexes,14064 and 15339,16647 and 16446,29664 and 30068,308120 and 297735,915794 and 868616,760327 and 820012,680312 and 708753,45345 and 53654,21182 and 20463,stronger ternary complexes,15183 and 13115,15317 and 19455,45755 and 47236,410345 and 373015,1136924 and 1140765,1286256 and 1221888,709163 and 786788,Cc1ncsc1-c1ccc([C@H](C)NC(=O)[C@@H]2C[C@@H](O)CN2C(=O)[C@@H](NC(=O)CCCC(=O)N2CCN(CC3(C)CCC(c4ccc(Cl)cc4)=C(CN4CCN(c5ccc(C(=O)NS(=O)(=O)c6ccc(N[C@H](CCN7CCOCC7)CSc7ccccc7)c(S(=O)(=O)C(F)(F)F)c6)cc5)CC4)C3)CC2)C(C)(C)C)cc1 (stereo partly shown) [PPC5],"BCL-xL degradation (in words) (BCL-xL; 293T cells, 16 h): partially degrade BCL-xL; DC50 (BCL-xL; 293T cells, 16 h): 316 nM; AlphaLISA signal, BCL-xL/PROTAC/VCB ([1]; compound 3125 nM): 257573 and 298187; AlphaLISA signal, BCL-2/PROTAC/VCB ([2]; compound 3125 nM): 91120 and 92885; AlphaLISA signal, BCL-2/PROTAC/VCB ([2]; compound 12500 nM): 18341 and 15512"
81,69,much weaker ternary complexes,14831 and 16852,20168 and 16739,14541 and 18037,19478 and 16699,33222 and 36251,136427 and 150589,133700 and 133335,16869 and 17291,11499 and 11443,much weaker ternary complexes,13116 and 18939,20209 and 15528,15560 and 16756,23256 and 23865,69142 and 68261,218425 and 202826,114837 and 140035,Cc1ncsc1-c1ccc([C@H](C)NC(=O)[C@@H]2C[C@@H](O)CN2C(=O)[C@@H](NC(=O)CCCCCCCCC(=O)N2CCN(CC3(C)CCC(c4ccc(Cl)cc4)=C(CN4CCN(c5ccc(C(=O)NS(=O)(=O)c6ccc(N[C@H](CCN7CCOCC7)CSc7ccccc7)c(S(=O)(=O)C(F)(F)F)c6)cc5)CC4)C3)CC2)C(C)(C)C)cc1 (stereo partly shown) [PPC10],"DC50 (BCL-xL; 293T cells, 16 h): 12.1 nM; BCL-2 degradation (in words) (BCL-2; 293T cells, 16 h): also degraded BCL-2; DC50 (BCL-2; 293T cells, four concentrations, 16 h, Fig. 2b, read-out: BCL-2 DC50): 355 nM; AlphaLISA signal, BCL-xL/PROTAC/VCB [1, 3]: 9101 and 11295; AlphaLISA signal, BCL-2/PROTAC/VCB ([2]; compound 3125 nM): 20525 and 27108; AlphaLISA signal, BCL-2/PROTAC/VCB ([2]; compound 12500 nM): 13932 and 13026; AlphaLISA signal, BCL-2/PROTAC/VCB ([2]; compound 50000 nM): 10041 and 13037; AlphaLISA signal, BCL-2/PROTAC/VCB [2, 3]: 11345 and 10101"
38,38,much weaker ternary complexes,14159 and 17511,19035 and 14403,18192 and 15524,16016 and 15699,18370 and 17440,28376 and 33281,25822 and 27451,15507 and 16950,13057 and 15839,much weaker ternary complexes,16751 and 14492,17062 and 15173,17477 and 13618,15016 and 16035,21071 and 20895,36395 and 36207,16303 and 18907,Cc1ncsc1-c1ccc([C@H](C)NC(=O)[C@@H]2C[C@@H](O)CN2C(=O)[C@@H](NC(=O)CCCCCCCCCC(=O)N2CCN(CC3(C)CCC(c4ccc(Cl)cc4)=C(CN4CCN(c5ccc(C(=O)NS(=O)(=O)c6ccc(N[C@H](CCN7CCOCC7)CSc7ccccc7)c(S(=O)(=O)C(F)(F)F)c6)cc5)CC4)C3)CC2)C(C)(C)C)cc1 (stereo partly shown) [PPC11],"AlphaLISA signal, BCL-xL/PROTAC/VCB ([1]; compound 3125 nM): 15301 and 22197; AlphaLISA signal, BCL-xL/PROTAC/VCB [1, 3]: 17326 and 15566; AlphaLISA signal, BCL-2/PROTAC/VCB ([2]; compound 3125 nM): 17856 and 16482; AlphaLISA signal, BCL-2/PROTAC/VCB ([2]; compound 12500 nM): 13061 and 15598; AlphaLISA signal, BCL-2/PROTAC/VCB ([2]; compound 50000 nM): 10324 and 9718; AlphaLISA signal, BCL-2/PROTAC/VCB [2, 3]: 13464 and 10765"
